Reference: ChEMBL document CHEMBL1156968, “2,5-Disubstituted pyridines as potent GPR119 agonists” (Bioorg Med Chem Lett, 2010)
Values after ≈ are worked out from the molar mass of the structure shown.

Legend:
[1] = target: T1, Glucose-dependent insulinotropic receptor (Homo sapiens, UniProt Q8TDV5); test: Agonist activity at human GPR119 receptor expressed in CHO-K1 cells co-transfected with 6CRE-Luc after 5 hrs by luciferase reporter gene assay; format: functional, cell-based
T1 sequence (Q8TDV5 whole entry): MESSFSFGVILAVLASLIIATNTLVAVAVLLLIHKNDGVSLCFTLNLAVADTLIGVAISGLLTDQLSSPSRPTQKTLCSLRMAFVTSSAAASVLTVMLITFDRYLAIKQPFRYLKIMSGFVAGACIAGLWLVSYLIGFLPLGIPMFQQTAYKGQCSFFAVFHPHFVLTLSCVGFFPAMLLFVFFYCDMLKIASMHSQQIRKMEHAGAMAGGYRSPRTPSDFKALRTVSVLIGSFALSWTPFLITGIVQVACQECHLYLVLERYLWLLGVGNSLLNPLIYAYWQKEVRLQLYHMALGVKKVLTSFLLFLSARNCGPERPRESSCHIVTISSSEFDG

[2] = target: T2, Glucose-dependent insulinotropic receptor (Homo sapiens) (UniProt Q8TDV5); test: Agonist activity at human GPR119 receptor expressed in CHO-K1 cells co-transfected with 6CRE-Luc after 5 hrs by luciferase reporter gene assay relative to N-(4-(1H-1,2,4-triazol-1-yl)phenyl)-5-nitro-6-(4-(pyridin-2-ylthio)piperidin-1-yl)pyrimidin-4-amine maximal response; format: functional, cell-based
T2 sequence (whole entry): T1 sequence (Q8TDV5 whole entry)

[3] = Cmax in mouse at 3 mg/kg, iv; format: ADME, organism-based; set-up: dose 3 mg/kg, route intravenous; conditions: in vivo
[4] = Cmax in mouse at 30 mg/kg, po; format: ADME, organism-based; set-up: dose 30 mg/kg, route oral; conditions: in vivo
[5] = Tmax in mouse at 3 mg/kg, iv; format: ADME, organism-based; set-up: dose 3 mg/kg, route intravenous; conditions: in vivo
[6] = Tmax in mouse at 30 mg/kg, po; format: ADME, organism-based; set-up: dose 30 mg/kg, route oral; conditions: in vivo
[7] = Half life in mouse at 3 mg/kg, iv; format: ADME, organism-based; set-up: dose 3 mg/kg, route intravenous; conditions: in vivo
[8] = Half life in mouse at 30 mg/kg, po; format: ADME, organism-based; set-up: dose 30 mg/kg, route oral; conditions: in vivo
[9] = AUC (0 to 24) in mouse at 3 mg/kg, iv; format: ADME, organism-based; set-up: time < 24 hr, dose 3 mg/kg, route intravenous; conditions: plasma
[10] = AUC (0 to 24) in mouse at 30 mg/kg, po; format: ADME, organism-based; set-up: time < 24 hr, dose 30 mg/kg, route oral; conditions: plasma
[11] = test system: Mus musculus; test: Clearance in mouse at 3 mg/kg, iv; format: ADME, organism-based; set-up: dose 3 mg/kg, route intravenous; conditions: in vivo
[12] = Volume of distribution at steady state in mouse at 3 mg/kg, iv; format: ADME, organism-based; set-up: dose 3 mg/kg, route intravenous; conditions: in vivo, read-out: Vdss
[13] = Membrane permeability by PAMPA method; format: ADME; conditions: read-out: permeability
[14] = Solubility in fasted simulated intestinal fluid at pH 6.5; format: physicochemical
[15] = Oral bioavailability in mouse at 30 mg/kg; format: ADME, organism-based; conditions: in vivo
[16] = target: T1, Glucose-dependent insulinotropic receptor; test: Agonist activity at human GPR119 receptor by cAMP mobilization assay; format: functional

EC50 [1] [nM] | Activity [2] [%] | SMILES | also measured
1000 | 118 | CC(C)OC(=O)N1CCC(COc2ccc(N3CCN(S(=O)(=O)N4CCCCC4)CC3)nc2)CC1 | –
300 | 171 | CC(C)OC(=O)N1CCC(COc2ccc(N3CCN(S(=O)(=O)C(C)C)CC3)nc2)CC1 | –
1800 | 69 | CC(C)OC(=O)N1CCC(COc2ccc(N3CCN(S(=O)(=O)c4cccs4)CC3)nc2)CC1 | –
700 | 95 | CCCS(=O)(=O)N1CCN(c2ccc(OCCC3CCN(C(=O)OC(C)C)CC3)cn2)CC1 | –
2100 | 97 | CCCS(=O)(=O)N1CCN(c2ccc(OCC3CCN(C(=O)C(F)F)CC3)cn2)CC1 | –
1000 | 45 | CCCS(=O)(=O)N1CCN(c2ccc(OCC3CCN(C(=O)NC(C)C)CC3)cn2)CC1 | –
> 10000 | 23 | CC(C)OC(=O)N1CCC(COc2ccc(N3CCN(C(=O)N(C)C)CC3)nc2)CC1 | –
100 | 164 | CCCCS(=O)(=O)N1CCN(c2ccc(OCC3CCN(C(=O)OC(C)C)CC3)cn2)CC1 | –
300 | 153 | CCCS(=O)(=O)N1CCN(c2ccc(OCC3CCN(C(=O)OC(C)C)CC3)cn2)CC1 | Cmax [3]: 3080 ng/mL; Cmax [4]: 3000 ng/mL; Tmax [5]: 45 min; Tmax [6]: 15 min; half-life [7]: 37.2 min; half-life [8]: 24 min; AUC at 24 h [9]: 3130 ng·h/mL; AUC at 24 h [10]: 2350 ng·h/mL; clearance [11]: 15.7 mL/min/kg; Vd [12]: 0.76 L/kg; Papp [13]: 47 ×10⁻⁶ cm/s; solubility [14]: 3.41 µg/mL (≈ 7.28 µM); bioavailability [15]: 8%
200 | 165 | CC(C)OC(=O)N1CCC(COc2ccc(N3CCN(S(=O)(=O)C4CCCCC4)CC3)nc2)CC1 | –
900 | 67 | CCCS(=O)(=O)N1CCN(c2ccc(OCC3CCN(C(=O)Nc4ccc(C(C)C)cc4)CC3)cn2)CC1 | –
– | – | O=[N+]([O-])c1c(Nc2ccc(-n3cncn3)cc2)ncnc1N1CCC(Sc2ccccn2)CC1 | EC50 [16]: 130 nM
300 | 178 | COCCS(=O)(=O)N1CCN(c2ccc(OCC3CCN(C(=O)OC(C)C)CC3)cn2)CC1 | –
2000 | 100 | CC(C)OC(=O)N1CCC(COc2ccc(N3CCN(S(=O)(=O)c4cccnc4)CC3)nc2)CC1 | –
90 | 136 | CC(C)OC(=O)N1CCC(COc2ccc(N3CCN(S(=O)(=O)CC4CCCCC4)CC3)nc2)CC1 | –
1900 | 112 | CC(C)OC(=O)N1CCC(COc2ccc(N3CCN(C(=O)c4ccco4)CC3)nc2)CC1 | –
1200 | 125 | CCN(CC)S(=O)(=O)N1CCN(c2ccc(OCC3CCN(C(=O)OC(C)C)CC3)cn2)CC1 | –
1600 | 186 | CCCS(=O)(=O)N1CCN(c2ccc(OCC3CCN(C(=O)CC(C)C)CC3)cn2)CC1 | –
2800 | 175 | CCCS(=O)(=O)N1CCN(c2ccc(OCC3CCN(C(=O)CC(C)(C)C)CC3)cn2)CC1 | –
2100 | 93 | CCS(=O)(=O)N1CCN(c2ccc(OC3CCN(C(=O)OC(C)C)CC3)cn2)CC1 | –
2000 | 112 | CCCS(=O)(=O)N1CCN(c2ccc(OCC3CCN(C(=O)c4ccco4)CC3)cn2)CC1 | –
800 | 75 | CCCS(=O)(=O)N1CCN(c2ccc(OCC3CCN(C(=O)NC(C)(C)C)CC3)cn2)CC1 | –
1300 | 167 | CCS(=O)(=O)N1CCN(c2ccc(OCC3CCN(C(=O)OC(C)C)CC3)cn2)CC1 | –
1200 | 69 | CCS(=O)(=O)N1CCN(c2ccc(OCCC3CCN(C(=O)OC(C)C)CC3)cn2)CC1 | –
> 10000 | < 10 | CC(=O)N1CCN(c2ccc(OCC3CCN(C(=O)OC(C)C)CC3)cn2)CC1 | –
> 10000 | 11 | CC(C)NC(=O)CN1CCN(c2ccc(OCC3CCN(C(=O)OC(C)C)CC3)cn2)CC1 | –
> 10000 | 16 | CCCS(=O)(=O)N1CCN(c2ccc(OCC3CCN(C(=O)NC4CCCCC4)CC3)cn2)CC1 | –
> 10000 | 41 | CCCS(=O)(=O)N1CCN(c2ccc(OCC3CCN(C(=O)N4CCOCC4)CC3)cn2)CC1 | –
2600 | 28 | COCCN1CCN(c2ccc(OCC3CCN(C(=O)OC(C)C)CC3)cn2)CC1 | –
